In patent publication US10183950B2, “Thienopyrimidine inhibitors of atypical protein kinase C” (Cancer Research Technology Limited, priority 2011, dated 2019):

What follows are compounds tested against T1, full-length human PKCι (Homo sapiens, UniProt P41743) (assay: PKCι IC50 IMAP fluorescence polarisation assay, full-length enzyme). Conditions: full length PKCi at 15 μM ATP; read-out: IC50 in IMAP assay against full length PKCi.
T1 construct: Recombinant, full-length human PKCι expressed in Sf21 insect cells is also commercially available; purchased; host or cells: Sf21 insect cells
T1 sequence (P41743 1-596): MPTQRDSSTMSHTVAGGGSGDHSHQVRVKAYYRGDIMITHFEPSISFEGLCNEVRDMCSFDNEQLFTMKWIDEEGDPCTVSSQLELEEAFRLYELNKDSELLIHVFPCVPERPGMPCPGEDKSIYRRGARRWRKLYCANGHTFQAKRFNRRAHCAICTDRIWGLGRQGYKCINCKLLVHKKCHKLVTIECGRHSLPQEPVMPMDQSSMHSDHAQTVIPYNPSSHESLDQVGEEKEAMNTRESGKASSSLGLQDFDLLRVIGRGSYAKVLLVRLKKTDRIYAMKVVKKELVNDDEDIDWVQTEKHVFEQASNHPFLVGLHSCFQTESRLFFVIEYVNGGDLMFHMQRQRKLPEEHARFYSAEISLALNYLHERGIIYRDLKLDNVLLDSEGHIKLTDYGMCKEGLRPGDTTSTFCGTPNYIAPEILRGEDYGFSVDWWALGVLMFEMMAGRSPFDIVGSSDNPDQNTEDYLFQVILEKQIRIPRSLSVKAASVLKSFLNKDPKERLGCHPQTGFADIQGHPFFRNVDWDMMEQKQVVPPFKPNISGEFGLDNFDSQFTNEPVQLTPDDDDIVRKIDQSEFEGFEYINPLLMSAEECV
Assay type: biochemical

**Q.** How did the IC50 turn out when `NC(CNc1nc(-c2ccncc2F)nc2c(-c3ccco3)csc12)Cc1ccccc1` (stereo in doubt) [compound 432, (R)-N*1*-[2-(3-Fluoro-pyridin-4-yl)-7-furan-2-yl-thieno[3,2-d]pyrimidin-4-yl]-3-phenyl-propane-1,2-diamine] was run?
**A.** The IC50 was 100 to 1000 nM.

**Q.** For `CC(C)(O)C#Cc1csc2c(N[C@@H]3CCNC3)nc(-c3ccncc3)nc12` [compound 514, 2-Methyl-4-[2-pyridin-4-yl-4-((R)-pyrrolidin-3-ylamino)-thieno[3,2-d]pyrimidin-7-yl]-but-3-yn-2-ol], which IC50 is on record?
**A.** The IC50 was 100 to 1000 nM.

**Q.** How did the IC50 turn out when `Cc1ccccc1Nc1csc2c(N[C@@H]3CCNC3)nc(-c3ccncc3F)nc12` [compound 498, 2-(3-Fluoro-pyridin-4-yl)-N*4*-(R)-pyrrolidin-3-yl-N*7*-o-tolyl-thieno[3,2-d]pyrimidine-4,7-diamine] was run?
**A.** The IC50 was 1000 to 10000 nM.

**Q.** Which IC50 does the source give for `Fc1ccc(Nc2csc3c(N[C@@H]4CCNC4)nc(-c4ccncc4F)nc23)cc1` [compound 493, N*7*-(4-Fluoro-phenyl)-2-(3-fluoro-pyridin-4-yl)-N*4*-(R)-pyrrolidin-3-yl-thieno[3,2-d]pyrimidine-4,7-diamine] here?
**A.** The IC50 was 10000 to 40000 nM.

**Q.** For `CC(O)C#Cc1csc2c(NC[C@@H](N)Cc3ccccc3)nc(-c3ccncc3)nc12` (stereo partly drawn) [compound 513, 4-[4-((S)-2-Amino-3-phenyl-propylamino)-2-pyridin-4-yl-thieno[3,2-d]pyrimidin-7-yl]-but-3-yn-2-ol], which IC50 is on record?
**A.** The IC50 was less than 100 nM.

**Q.** How did the IC50 turn out when `NC(CNc1nc(-c2ccncc2F)nc2c(-c3cncnc3)csc12)Cc1ccccc1` (stereo in doubt) [compound 422, (R)-N*1*-[2-(3-Fluoro-pyridin-4-yl)-7-pyrimidin-5-yl-thieno[3,2-d]pyrimidin-4-yl]-3-phenyl-propane-1,2-diamine] was run?
**A.** Its IC50 is 1000 to 10000 nM.

**Q.** With `N[C@H](CNc1nc(-c2ccncc2)nc2c(Nc3ncccn3)csc12)Cc1ccccc1` [compound 488, N*4*-((S)-2-Amino-3-phenyl-propyl)-2-pyridin-4-yl-N*7*-pyrimidin-2-yl-thieno[3,2-d]pyrimidine-4,7-diamine] as the compound, how does the IC50 read?
**A.** The IC50 was 100 to 1000 nM.

**Q.** For `COc1cccc(-c2c(C(C)(C)C)sc3c(NC[C@@H](N)Cc4ccccc4)nc(-c4ccncc4)nc23)c1` [compound 441, (S)-N*1*-[6-tert-Butyl-7-(3-methoxy-phenyl)-2-pyridin-4-yl-thieno[3,2-d]pyrimidin-4-yl]-3-phenyl-propane-1,2-diamine], which IC50 is on record?
**A.** Its IC50 is 10000 to 40000 nM.

**Q.** For `O=C(Nc1cc(-c2nc(N[C@@H]3CCNC3)c3sccc3n2)ccn1)C1CC1` [compound 599, Cyclopropanecarboxylic acid {4-[4-((R)-pyrrolidin-3-ylamino)-thieno[3,2-d]pyrimidin-2-yl]-pyridin-2-yl}-amide], which IC50 is on record?
**A.** Its IC50 is 100 to 1000 nM.

**Q.** With `Cc1ccc(-c2c(C(C)(C)C)sc3c(NC[C@@H](N)Cc4ccccc4)nc(-c4ccncc4)nc23)s1` [compound 447, (S)-N*1*-[6-tert-Butyl-7-(5-methyl-thiophen-2-yl)-2-pyridin-4-yl-thieno[3,2-d]pyrimidin-4-yl]-3-phenyl-propane-1,2-diamine] as the compound, how does the IC50 read?
**A.** The IC50 was 1000 to 10000 nM.

**Q.** How did the IC50 turn out when `Cc1ccc(OC(C)C)c(-c2c(C)sc3c(NC[C@@H](N)Cc4ccccc4)nc(-c4ccncc4)nc23)c1` [compound 458, (S)-N*1*-[7-(2-Isopropoxy-5-methyl-phenyl)-6-methyl-2-pyridin-4-yl-thieno[3,2-d]pyrimidin-4-yl]-3-phenyl-propane-1,2-diamine] was run?
**A.** Its IC50 is 10000 to 40000 nM.

**Q.** Which IC50 does the source give for `Cc1csc(-c2csc3c(NC[C@@H](N)Cc4ccccc4)nc(-c4ccncc4)nc23)c1` [compound 395, (S)-N*1*-[7-(4-Methyl-thiophen-2-yl)-2-pyridin-4-yl-thieno[3,2-d]pyrimidin-4-yl]-3-phenyl-propane-1,2-diamine] here?
**A.** Its IC50 is 1000 to 10000 nM.

**Q.** How did the IC50 turn out when `N[C@H](CNc1nc(-c2ccncc2F)nc2c(-c3ccc[nH]3)csc12)Cc1ccccc1` [compound 419, (S)-N*1*-[2-(3-Fluoro-pyridin-4-yl)-7-(1H-pyrrol-2-yl)-thieno[3,2-d]pyrimidin-4-yl]-3-phenyl-propane-1,2-diamine] was run?
**A.** The IC50 was 100 to 1000 nM.

**Q.** `CC(C)(O)C#Cc1csc2c(N[C@@H]3CCNC3)nc(-c3ccncc3F)nc12` [compound 519, 4-[2-(3-Fluoro-pyridin-4-yl)-4-((R)-pyrrolidin-3-ylamino)-thieno[3,2-d]pyrimidin-7-yl]-2-methyl-but-3-yn-2-ol] was tested. Which IC50 did it give?
**A.** Its IC50 is 1000 to 10000 nM.

**Q.** For `COc1ccc(OC)c(-c2c(C)sc3c(NC[C@@H](N)Cc4ccccc4)nc(-c4ccncc4)nc23)c1` [compound 466, (S)-N*1*-[7-(2,5-Dimethoxy-phenyl)-6-methyl-2-pyridin-4-yl-thieno[3,2-d]pyrimidin-4-yl]-3-phenyl-propane-1,2-diamine], which IC50 is on record?
**A.** Its IC50 is 10000 to 40000 nM.

**Q.** `NC(=O)CN1C[C@H](Nc2nc(-c3ccnc(NC(=O)c4cccs4)c3)nc3ccsc23)[C@@H](O)C1` [compound 629, Thiophene-2-carboxylic acid {4-[4-((3S,4S)-1-carbamoylmethyl-4-hydroxy-pyrrolidin-3-ylamino)-thieno[3,2-d]pyrimidin-2-yl]-pyridin-2-yl}-amide] was tested. Which IC50 did it give?
**A.** Its IC50 is 1000 to 10000 nM.

**Q.** `N[C@@H](CNc1nc(-c2ccncc2)nc2c(-c3ccn[nH]3)csc12)Cc1ccccc1` [compound 414, (R)-3-Phenyl-N*1*-[7-(1H-pyrazol-3-yl)-2-pyridin-4-yl-thieno[3,2-d]pyrimidin-4-yl]-propane-1,2-diamine] was tested. Which IC50 did it give?
**A.** Its IC50 is 100 to 1000 nM.

**Q.** Which IC50 does the source give for `Cc1sc2c(NC[C@@H](N)Cc3ccccc3)nc(-c3ccncc3)nc2c1-c1cc(F)ccc1OC(C)C` [compound 446, (S)-N*1*-[7-(5-Fluoro-2-isopropoxy-phenyl)-6-methyl-2-pyridin-4-yl-thieno[3,2-d]pyrimidin-4-yl]-3-phenyl-propane-1,2-diamine] here?
**A.** Its IC50 is 10000 to 40000 nM.

**Q.** For `N[C@H](CNc1nc(-c2ccncc2F)nc2c(-c3cc[nH]c3)csc12)Cc1ccccc1` [compound 420, (S)-N*1*-[2-(3-Fluoro-pyridin-4-yl)-7-(1H-pyrrol-3-yl)-thieno[3,2-d]pyrimidin-4-yl]-3-phenyl-propane-1,2-diamine], which IC50 is on record?
**A.** Its IC50 is 100 to 1000 nM.

**Q.** Which IC50 does the source give for `F[C@@H]1CNC[C@@H]1Nc1nc(-c2ccncc2)nc2ccsc12` [compound 321, ((3S,4R)-4-Fluoro-pyrrolidin-3-yl)-(2-pyridin-4-yl-thieno[3,2-d]pyrimidin-4-yl)-amine] here?
**A.** The IC50 was 10000 to 40000 nM.

**Q.** Which IC50 does the source give for `CC(C)(O)C#Cc1csc2c(NC[C@@H](N)Cc3ccccc3)nc(-c3ccncc3)nc12` [compound 510, 4-[4-((S)-2-Amino-3-phenyl-propylamino)-2-pyridin-4-yl-thieno[3,2-d]pyrimidin-7-yl]-2-methyl-but-3-yn-2-ol] here?
**A.** Its IC50 is less than 100 nM.

**Q.** Which IC50 does the source give for `O=C(Nc1cc(-c2nc(N[C@@H]3CCNC3)c3sccc3n2)ccn1)[C@@H]1CCCO1` [compound 578, (S)-Tetrahydro-furan-2-carboxylic acid {4-[4-((R)-pyrrolidin-3-ylamino)-thieno[3,2-d]pyrimidin-2-yl]-pyridin-2-yl}-amide] here?
**A.** The IC50 was 100 to 1000 nM.

**Q.** How did the IC50 turn out when `N[C@H](CNc1nc(-c2ccncc2)nc2c(Br)csc12)CC1CCCCC1` [compound 348, (S)-N*1*-(7-Bromo-2-pyridin-4-yl-thieno[3,2-d]pyrimidin-4-yl)-3-cyclohexyl-propane-1,2-diamine] was run?
**A.** The IC50 was 100 to 1000 nM.

**Q.** Which IC50 does the source give for `CC(C)NC(=O)c1csc2c(NC[C@@H](N)Cc3ccccc3)nc(-c3ccncc3)nc12` [compound 555, 4-((S)-2-Amino-3-phenyl-propylamino)-2-pyridin-4-yl-thieno[3,2-d]pyrimidine-7-carboxylic acid isopropylamide] here?
**A.** Its IC50 is 1000 to 10000 nM.

**Q.** For `NCCNc1nc(-c2ccncc2)nc2c(Br)csc12` [compound 349, N*1*-(7-Bromo-2-pyridin-4-yl-thieno[3,2-d]pyrimidin-4-yl)-ethane-1,2-diamine], which IC50 is on record?
**A.** Its IC50 is 100 to 1000 nM.

**Q.** Which IC50 does the source give for `C#Cc1csc2c(N[C@@H]3CCNC3)nc(-c3ccncc3)nc12` [compound 559, (7-Ethynyl-2-pyridin-4-yl-thieno[3,2-d]pyrimidin-4-yl)-(R)-pyrrolidin-3-yl-amine] here?
**A.** Its IC50 is 100 to 1000 nM.

**Q.** How did the IC50 turn out when `Cc1cc(-c2csc3c(NC[C@@H](N)Cc4ccccc4)nc(-c4ccncc4)nc23)n[nH]1` [compound 569, (S)-N*1*-[7-(5-Methyl-1H-pyrazol-3-yl)-2-pyridin-4-yl-thieno[3,2-d]pyrimidin-4-yl]-3-phenyl-propane-1,2-diamine] was run?
**A.** Its IC50 is less than 100 nM.

Same assay, conditions: full length PKCi at 15 μM ATP; read-out: IC50 in IMAP assay against full length PKCi (Activity)

**Q.** `COc1ccc(C[C@H](N)CNc2nc(-c3ccncc3)nc3sc4c(c23)CCCC4)cc1` [compound 47, (S)-3-(4-Methoxy-phenyl)-N*1*-(2-pyridin-4-yl-5,6,7,8-tetrahydro-benzo[4,5]thieno[2,3-d]pyrimidin-4-yl)-propane-1,2-diamine] was tested. Which IC50 did it give?
**A.** Its IC50 is 100 to 1000 nM.

**Q.** How did the IC50 turn out when `CN1CCc2c(sc3nc(-c4ccncc4)nc(NCCN)c23)C1` [compound 113, N*1*-(7-Methyl-2-pyridin-4-yl-5,6,7,8-tetrahydro-pyrido[4′,3′:4,5]thieno[2,3-d]pyrimidin-4-yl)-ethane-1,2-diamine] was run?
**A.** Its IC50 is 10000 to 40000 nM.

**Q.** With `NCCNc1nc(-c2ccncc2)nc2sc3c(c12)CCOC3` [compound 45, N*1*-(2-Pyridin-4-yl-5,8-dihydro-6H-pyrano[4′3′:4,5]thieno[2,3-d]pyrimidin-4-yl)-ethane-1,2-diamine] as the compound, how does the IC50 read?
**A.** Its IC50 is 10000 to 40000 nM.
